According to patent US20230278972A1, “SUBSTITUTED HALOALKYL SULFONANILIDE HERBICIDES” (FMC Corporation, priority 2020, published 2023):

What was measured:
Type in all cases: in vivo
[1] = test system: Ryegrass, Italian (Italian ryegrass, Lolium multiflorum); assay: Test A postemergence, Ryegrass, Italian; conditions: Postemergence, 0 to 100 scale (0 no effect, 100 complete control); for Ryegrass, Italian plant response rating: 500 g ai/ha, visual injury vs untreated controls after approx. 10 days
In short: (§1)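 Whole-plant herbicidal screen in pots of loam blended with sand. Sprays used a surfactant-containing, non-phytotoxic solvent vehicle. Timing was preemergence soil-directed at planting or postemergence at the one- to two-leaf stage (2–10 cm).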

[2] = test system: corn (Zea mays); assay: Test A postemergence, corn; conditions: Postemergence, 0 to 100 scale (0 no effect, 100 complete control); for Corn plant response rating: 500 g ai/ha, visual injury vs untreated controls after approx. 10 days
In short: as §1

[3] = test system: barnyardgrass (Echinochloa crus-galli); assay: Test A postemergence, barnyardgrass; conditions: Postemergence, 0 to 100 scale (0 no effect, 100 complete control); for Barnyardgrass plant response rating: 500 g ai/ha, visual injury vs untreated controls after approx. 10 days
In short: (§2)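 Greenhouse pot test in a loam–sand blend; compounds delivered in a non-phytotoxic solvent carrying a surfactant, applied either as a directed spray to soil at seeding or over seedlings 2 to 10 cm high with one to two leaves.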

[4] = test system: wheat (Triticum aestivum); assay: Test A postemergence, wheat; conditions: Postemergence, 0 to 100 scale (0 no effect, 100 complete control); for Wheat plant response rating: 500 g ai/ha, visual injury vs untreated controls after approx. 10 days
In short: as §2

[5] = test system: kochia (Bassia scoparia); assay: Test A preemergence, kochia; conditions: Preemergence; for Kochia plant response rating: 125 g ai/ha, visual injury on 0 to 100 scale (0 no effect, 100 complete control), approximately 10 days; for Plant response rating, Kochia: 0 to 100 scale (0 no effect, 100 complete control)
In short: as §1

[6] = test system: barnyardgrass (Echinochloa crus-galli); assay: Test A preemergence, barnyardgrass; conditions: Preemergence; for Barnyardgrass plant response rating: 125 g ai/ha, visual injury on 0 to 100 scale (0 no effect, 100 complete control), approximately 10 days; for Plant response rating, Barnyardgrass: 0 to 100 scale (0 no effect, 100 complete control)
In short: as §1

[7] = test system: pigweed (Amaranthus retroflexus); assay: Test A preemergence, pigweed; conditions: for Pigweed plant response rating: 125 g ai/ha, visual injury on 0 to 100 scale (0 no effect, 100 complete control), approximately 10 days; for Plant response rating, Pigweed: 0 to 100 scale (0 no effect, 100 complete control)
In short: as §2

[8] = test system: galium (catchweed bedstraw, Galium aparine); assay: Test A postemergence, galium; conditions: Postemergence, 0 to 100 scale (0 no effect, 100 complete control); for Galium plant response rating: 500 g ai/ha, visual injury vs untreated controls after approx. 10 days
In short: as §2

[9] = test system: Foxtail, Giant (giant foxtail, Setaria faberi); assay: Test A postemergence, Foxtail, Giant; conditions: Postemergence, 0 to 100 scale (0 no effect, 100 complete control); for Foxtail, Giant plant response rating: 500 g ai/ha, visual injury vs untreated controls after approx. 10 days
In short: as §1

[10] = test system: ragweed (common ragweed, Ambrosia artemisiifolia); assay: Test A postemergence, ragweed; conditions: Postemergence, 0 to 100 scale (0 no effect, 100 complete control); for Ragweed plant response rating: 500 g ai/ha, visual injury vs untreated controls after approx. 10 days
In short: as §1

[11] = test system: Ryegrass, Italian (Italian ryegrass, Lolium multiflorum); assay: Test A preemergence, Ryegrass, Italian; conditions: Preemergence; for Ryegrass, Italian plant response rating: 125 g ai/ha, visual injury on 0 to 100 scale (0 no effect, 100 complete control), approximately 10 days; for Plant response rating, Ryegrass, Italian: 0 to 100 scale (0 no effect, 100 complete control)
In short: as §1

[12] = test system: Foxtail, Giant (giant foxtail, Setaria faberi); assay: Test A preemergence, Foxtail, Giant; conditions: Preemergence; for Foxtail, Giant plant response rating: 125 g ai/ha, visual injury on 0 to 100 scale (0 no effect, 100 complete control), approximately 10 days; for Plant response rating, Foxtail, Giant: 0 to 100 scale (0 no effect, 100 complete control)
In short: as §1

[13] = test system: kochia (Bassia scoparia); assay: Test A postemergence, kochia; conditions: Postemergence, 0 to 100 scale (0 no effect, 100 complete control); for Kochia plant response rating: 500 g ai/ha, visual injury vs untreated controls after approx. 10 days
In short: as §1

[14] = test system: blackgrass (Alopecurus myosuroides); assay: Test A postemergence, blackgrass; conditions: Postemergence, 0 to 100 scale (0 no effect, 100 complete control); for Blackgrass plant response rating: 500 g ai/ha, visual injury vs untreated controls after approx. 10 days
In short: as §1

[15] = test system: pigweed (Amaranthus retroflexus); assay: Test A postemergence, pigweed; conditions: Postemergence, 0 to 100 scale (0 no effect, 100 complete control); for Pigweed plant response rating: 500 g ai/ha, visual injury vs untreated controls after approx. 10 days
In short: as §1

[16] = test system: ragweed (common ragweed, Ambrosia artemisiifolia); assay: Test A preemergence, ragweed; conditions: Preemergence; for Ragweed plant response rating: 125 g ai/ha, visual injury on 0 to 100 scale (0 no effect, 100 complete control), approximately 10 days; for Plant response rating, Ragweed: 0 to 100 scale (0 no effect, 100 complete control)
In short: as §1

[17] = 125 g ai/ha, visual injury approx. 10 days
[18] = 1000 g ai/ha, visual injury, approx. 10 days

For `CCn1nc(Cl)cc(-c2cc(NS(=O)(=O)C(F)(F)F)c(C)cc2C)c1=O` [Compound 51], the “Plant response rating, Ryegrass, Italian” value [1, 17] was 70, the “Ryegrass, Italian plant response rating” value [1] was 80 and the “Plant response rating, Corn” value [2, 17] was 0. The “Corn plant response rating” value [2] was 20, the “Plant response rating, Barnyardgrass” value [3, 17] was 30 and the “Barnyardgrass plant response rating” value [3] was 80. For the same compound, the “Plant response rating, Wheat” value [4, 17] was 50, the “Wheat plant response rating” value [4] was 60 and the “Kochia plant response rating” value [5] was 80. The “Plant response rating, Kochia” value ([5]; 500 g ai/ha) was 90, the “Barnyardgrass plant response rating” value [6] was 100 and the “Plant response rating, Barnyardgrass” value ([6]; 500 g ai/ha) was 100. The “Pigweed plant response rating” value [7] was 80, the “Plant response rating, Pigweed” value ([7]; 500 g ai/ha) was 90 and the “Plant response rating, Galium” value [8, 17] was 40. The “Galium plant response rating” value [8] was 60, the “Plant response rating, Foxtail, Giant” value [9, 17] was 30 and the “Foxtail, Giant plant response rating” value [9] was 80. The “Plant response rating, Ragweed” value [10, 17] was 50, the “Ragweed plant response rating” value [10] was 80 and the “Ryegrass, Italian plant response rating” value [11] was 90. The “Plant response rating, Ryegrass, Italian” value ([11]; 500 g ai/ha) was 100, the “Foxtail, Giant plant response rating” value [12] was 100 and the “Plant response rating, Foxtail, Giant” value ([12]; 500 g ai/ha) was 100. For the same compound, the “Plant response rating, Kochia” value [13, 17] was 10, the “Kochia plant response rating” value [13] was 60 and the “Plant response rating, Blackgrass” value [14, 17] was 20. The “Blackgrass plant response rating” value [14] was 70, the “Plant response rating, Pigweed” value [15, 17] was 60 and the “Pigweed plant response rating” value [15] was 80. For the same compound, the “Ragweed plant response rating” value [16] was 60 and the “Plant response rating, Ragweed” value ([16]; 500 g ai/ha) was 90.

`COc1c(Cl)nn(C)c(=O)c1-c1cc(NS(=O)(=O)C(F)(F)F)c(C)cc1C` [Compound 64] was tested, and the “Plant response rating, Ryegrass, Italian” value [1, 17] was 40, the “Ryegrass, Italian plant response rating” value [1] was 80 and the “Plant response rating, Corn” value [2, 17] was 0. The “Corn plant response rating” value [2] was 0, the “Plant response rating, Barnyardgrass” value [3, 17] was 20 and the “Barnyardgrass plant response rating” value [3] was 20. The “Plant response rating, Wheat” value [4, 17] was 40, the “Wheat plant response rating” value [4] was 60 and the “Kochia plant response rating” value [5] was 40. For the same compound, the “Plant response rating, Kochia” value ([5]; 500 g ai/ha) was 90, the “Barnyardgrass plant response rating” value [6] was 50 and the “Plant response rating, Barnyardgrass” value ([6]; 500 g ai/ha) was 90. For the same compound, the “Pigweed plant response rating” value [7] was 40, the “Plant response rating, Pigweed” value ([7]; 500 g ai/ha) was 50 and the “Plant response rating, Galium” value [8, 17] was 0. The “Galium plant response rating” value [8] was 30, the “Plant response rating, Foxtail, Giant” value [9, 17] was 0 and the “Foxtail, Giant plant response rating” value [9] was 60. The “Plant response rating, Ragweed” value [10, 17] was 0, the “Ragweed plant response rating” value [10] was 0 and the “Ryegrass, Italian plant response rating” value [11] was 70. The “Plant response rating, Ryegrass, Italian” value ([11]; 500 g ai/ha) was 100, the “Foxtail, Giant plant response rating” value [12] was 90 and the “Plant response rating, Foxtail, Giant” value ([12]; 500 g ai/ha) was 90. For the same compound, the “Plant response rating, Kochia” value [13, 17] was 20, the “Kochia plant response rating” value [13] was 60 and the “Plant response rating, Blackgrass” value [14, 17] was 0. For the same compound, the “Blackgrass plant response rating” value [14] was 30, the “Plant response rating, Pigweed” value [15, 17] was 20 and the “Pigweed plant response rating” value [15] was 30. For the same compound, the “Ragweed plant response rating” value [16] was 0 and the “Plant response rating, Ragweed” value ([16]; 500 g ai/ha) was 40.

In the case of `Cc1ccc(C(=O)N2CCCCC2)cc1NS(=O)(=O)C(F)(F)F` [Compound 259], the “Plant response rating, Ryegrass, Italian” value [1, 18] is reported as 10, the “Plant response rating, Corn” value [2, 18] is reported as 10 and the “Plant response rating, Barnyardgrass” value [3, 18] is reported as 0. For the same compound, the “Plant response rating, Wheat” value [4, 18] was 0, the “Plant response rating, Kochia” value ([5]; 1000 g ai/ha) was 40 and the “Plant response rating, Barnyardgrass” value ([6]; 1000 g ai/ha) was 90. For the same compound, the “Plant response rating, Pigweed” value ([7]; 1000 g ai/ha) was 80, the “Plant response rating, Galium” value [8, 18] was 60 and the “Plant response rating, Foxtail, Giant” value [9, 18] was 0. The “Plant response rating, Ragweed” value [10, 18] was 10, the “Plant response rating, Ryegrass, Italian” value ([11]; 1000 g ai/ha) was 80 and the “Plant response rating, Foxtail, Giant” value ([12]; 1000 g ai/ha) was 90. The “Plant response rating, Kochia” value [13, 18] was 40, the “Plant response rating, Blackgrass” value [14, 18] was 50 and the “Plant response rating, Pigweed” value [15, 18] was 40. The “Plant response rating, Ragweed” value ([16]; 1000 g ai/ha) was 70.
